Reference: the Kinase Knowledgebase extract (Sharma et al. 2016)

Molecular target: PIK3CA (human) (UniProt P42336)
Test: Assessment of PIK3CA Kinase Activity

Sequence of PIK3CA (human) (P42336 whole entry, looked up): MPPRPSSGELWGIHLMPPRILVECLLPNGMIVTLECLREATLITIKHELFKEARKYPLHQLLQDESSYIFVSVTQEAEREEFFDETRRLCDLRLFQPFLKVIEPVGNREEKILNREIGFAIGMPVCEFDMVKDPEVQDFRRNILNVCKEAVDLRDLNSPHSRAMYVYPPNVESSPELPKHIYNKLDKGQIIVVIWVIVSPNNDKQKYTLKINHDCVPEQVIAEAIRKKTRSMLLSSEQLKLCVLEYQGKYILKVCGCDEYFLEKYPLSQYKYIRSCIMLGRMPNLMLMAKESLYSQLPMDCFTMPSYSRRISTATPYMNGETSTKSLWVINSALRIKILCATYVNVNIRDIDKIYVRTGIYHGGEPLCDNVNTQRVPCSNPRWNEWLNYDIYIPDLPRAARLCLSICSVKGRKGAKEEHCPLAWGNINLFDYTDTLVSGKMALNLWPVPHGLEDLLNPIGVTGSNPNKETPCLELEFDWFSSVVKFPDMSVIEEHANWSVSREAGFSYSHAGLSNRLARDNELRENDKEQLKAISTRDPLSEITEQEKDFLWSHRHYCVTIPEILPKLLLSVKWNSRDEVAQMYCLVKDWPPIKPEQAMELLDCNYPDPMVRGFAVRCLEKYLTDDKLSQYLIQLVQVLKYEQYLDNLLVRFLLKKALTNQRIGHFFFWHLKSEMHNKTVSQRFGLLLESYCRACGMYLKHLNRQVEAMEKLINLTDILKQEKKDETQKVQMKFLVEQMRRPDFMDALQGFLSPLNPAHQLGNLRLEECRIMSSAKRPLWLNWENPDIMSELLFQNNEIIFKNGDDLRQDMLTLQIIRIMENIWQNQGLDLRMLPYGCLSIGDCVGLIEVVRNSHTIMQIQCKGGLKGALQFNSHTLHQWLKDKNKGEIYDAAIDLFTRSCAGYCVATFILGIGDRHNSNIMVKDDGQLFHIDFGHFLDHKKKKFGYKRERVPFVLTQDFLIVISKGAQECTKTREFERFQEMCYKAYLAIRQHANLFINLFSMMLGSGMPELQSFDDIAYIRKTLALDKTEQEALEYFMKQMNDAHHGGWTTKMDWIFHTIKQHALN

IC50 [nM]	SMILES
< 50	CN(C)C(=O)c1ccc(NC(=O)Nc2ccc(-c3nc(N4CCOCC4)c4ccc(-c5cccs5)cc4n3)cc2)cc1
< 50	Cc1noc(C)c1-c1ccc2c(N3CCOCC3)nc(-c3ccc(NC(=O)Nc4ccc(C(=O)N(C)C)cc4)cc3)nc2c1
< 50	Cc1ccc(-c2ccc3c(N4CCOCC4)nc(-c4ccc(NC(=O)Nc5ccc(C(=O)N(C)CCN(C)C)cc5)cc4)nc3c2)o1
< 50	CN(C)[C@H]1CCN(C(=O)c2ccc(NC(=O)Nc3ccc(-c4nc(N5CCOCC5)c5ncc(-c6cncnc6)cc5n4)cc3)cc2)C1
< 50	CN(C)C(=O)c1ccc(NC(=O)Nc2ccc(-c3nc(N4CCOCC4)c4ccc(-c5cccnc5F)cc4n3)cc2F)cc1
< 50	CN(C)C(=O)c1ccc(NC(=O)Nc2ccc(-c3nc(N4CCOCC4)c4ccc(-c5cncnc5)cc4n3)cn2)c(F)c1
50 to 200	CNC(=O)c1ccc(NC(=O)Nc2ccc(-c3nc(N4CCOCC4)c4ccc(-c5cncnc5)cc4n3)cc2)cc1
50 to 200	COc1ncc(-c2ccc3c(N4CCOCC4)nc(-c4ccc(NC(=O)Nc5ccc(C(=O)N(C)C)cc5F)cc4)nc3c2)cn1
< 50	O=C(Nc1ccc(C(=O)N2CCC(O)C2)cc1)Nc1ccc(-c2nc(N3CCOCC3)c3ccc(-c4ccco4)cc3n2)cc1 (configuration not stated)
< 50	CN(C)C(=O)c1ccc(NC(=O)Nc2ccc(-c3nc(N4CCOCC4)c4ncc(-c5cnn(C)c5)cc4n3)cc2)cc1
< 50	CN1CCN(C(=O)c2ccc(NC(=O)Nc3ccc(-c4nc(N5CCOCC5)c5ncc(-c6cncnc6)cc5n4)cc3)cc2)CC1
< 50	CN(C)C(=O)c1ccc(NC(=O)Nc2ccc(-c3nc(N4CCOCC4)c4cc(F)c(-c5cccnc5F)cc4n3)cn2)cc1
< 50	CN(C)C(=O)c1ccc(NC(=O)Nc2ccc(-c3nc(N4CCOCC4)c4ccc(-c5cccc(S(C)(=O)=O)c5)cc4n3)cc2)cc1
< 50	CN(C)C(=O)c1ccc(NC(=O)Nc2ccc(-c3nc(N4CCOCC4)c4ccc(-c5ccc(CO)o5)cc4n3)cc2)cc1F
50 to 200	CNC(=O)c1ccc(NC(=O)Nc2ccc(-c3nc(N4CCOCC4)c4ccc(-c5ccc(C)o5)cc4n3)cc2)cc1
< 50	CN(C)C(=O)c1ccc(NC(=O)Nc2ccc(-c3nc(N4CCOCC4)c4ccc(-c5cccc(S(C)(=O)=O)c5)cc4n3)cc2F)cc1
50 to 200	CN(C)C(=O)c1ccc(NC(=O)Nc2ccc(-c3nc(N4CCOCC4)c4cc(F)c(-c5cccnc5)cc4n3)cc2F)cc1
< 50	Cc1ccncc1-c1ccc2c(N3CCOCC3)nc(-c3ccc(NC(=O)Nc4ccc(C(=O)N5CCC(N(C)C)CC5)cc4)cc3)nc2c1
50 to 200	CN(C)C(=O)c1ccc(NC(=O)Nc2ccc(-c3nc(N4CCOCC4)c4ccccc4n3)cc2)cc1
< 50	CN(C)[C@@H]1CCN(C(=O)c2ccc(NC(=O)Nc3ccc(-c4nc(N5CCOCC5)c5ncc(-c6cnn(C)c6)cc5n4)cc3F)cc2)C1
< 50	Cc1noc(C)c1-c1cnc2c(N3CCOCC3)nc(-c3ccc(NC(=O)Nc4ccc(C(=O)N(C)C)cc4)cc3)nc2c1
50 to 200	CNC(=O)c1ccc(NC(=O)Nc2ccc(-c3nc(N4CCOCC4)c4ccc(-c5cncnc5)cc4n3)cc2F)cc1
< 50	CNC(=O)c1ccc(NC(=O)Nc2ccc(-c3nc(N4CCOCC4)c4ccc(-c5cccc(S(C)(=O)=O)c5)cc4n3)cc2)cc1
< 50	CN(C)C(=O)c1ccc(NC(=O)Nc2ccc(-c3nc(N4CCOCC4)c4ccc(CO)cc4n3)cc2)cc1

IC50 [nM]	SMILES
< 50	CN(C)C(=O)c1ccc(NC(=O)Nc2ccc(-c3nc(N4CCOCC4)c4ccc(C(C)(C)O)cc4n3)cc2)cc1
< 50	CN(C)C(=O)c1ccc(NC(=O)Nc2ccc(-c3nc(N4CCOCC4)c4ncc(-c5cccnc5F)cc4n3)cc2)c(F)c1
< 50	Cc1ccncc1-c1ccc2c(N3CCOCC3)nc(-c3ccc(NC(=O)Nc4ccc(C(=O)N(C)C)cc4)c(F)c3)nc2c1
50 to 200	Cc1ccc(-c2ccc3c(N4CCOCC4)nc(-c4ccc(NC(=O)Nc5ccc(C(=O)N6CC[C@@H](N(C)C)C6)cc5)cc4)nc3c2)o1
< 50	CN(C)C(=O)c1ccc(NC(=O)Nc2ccc(-c3nc(N4CCOCC4)c4cc(F)c(-c5cncnc5)cc4n3)cn2)cc1
< 50	CN(C)C(=O)c1ccc(NC(=O)Nc2ccc(-c3nc(N4CCOCC4)c4ncc(-c5cnn(C)c5)cc4n3)cc2)cc1F
< 50	CN(C)[C@H]1CCN(C(=O)c2ccc(NC(=O)Nc3ccc(-c4nc(N5CCOCC5)c5cc(F)c(-c6cccnc6)cc5n4)cc3)cc2)C1
< 50	COc1ncc(-c2cnc3c(N4CCOCC4)nc(-c4ccc(NC(=O)Nc5ccc(C(=O)N(C)C)cc5F)cc4)nc3c2)cn1
< 50	CN(C)C(=O)c1ccc(NC(=O)Nc2ccc(-c3nc(N4CCOCC4)c4ccc(-c5cccnc5)cc4n3)cc2)cc1
< 50	CN(C)[C@H]1CCN(C(=O)c2ccc(NC(=O)Nc3ccc(-c4nc(N5CCOCC5)c5ncc(-c6cnn(C)c6)cc5n4)cc3F)cc2)C1
< 50	CN1CCN(C(=O)c2ccc(NC(=O)Nc3ccc(-c4nc(N5CCOCC5)c5ccc(-c6cccnc6)cc5n4)cc3)cc2)CC1
50 to 200	COc1cc2nc(-c3ccc(NC(=O)Nc4ccc(C(=O)N(C)C)cc4)cc3)nc(N3CCOCC3)c2cc1OC
< 50	N[C@@H]1CCN(C(=O)c2ccc(NC(=O)Nc3ccc(-c4nc(N5CCOCC5)c5ccc(-c6cncnc6)cc5n4)cc3F)cc2)C1
< 50	CN(C)C(=O)c1ccc(NC(=O)Nc2ccc(-c3nc(N4CCOCC4)c4ccc(-c5cnc(N(C)C)nc5)cc4n3)cc2)cc1
< 50	CN(C)C(=O)c1ccc(NC(=O)Nc2ccc(-c3nc(N4CCOCC4)c4ccc(-c5ccc(C#N)o5)cc4n3)cc2)cc1
50 to 200	CN(C)C(=O)c1ccc(NC(=O)Nc2ccc(-c3nc(N4CCOCC4)c4ccc(-c5ccnnc5)cc4n3)cc2)cc1
< 50	CN(C)C(=O)c1ccc(NC(=O)Nc2ccc(-c3nc(N4CCOCC4)c4ccc(-c5ccccn5)cc4n3)cc2)cc1F
< 50	CN(C)C(=O)c1ccc(NC(=O)Nc2ccc(-c3nc(N4CCOCC4)c4ccc(-c5ccnc(F)c5)cc4n3)cc2)cc1
< 50	CC(=O)c1ccc(-c2ccc3c(N4CCOCC4)nc(-c4ccc(NC(=O)Nc5ccc(C(=O)N(C)C)c(F)c5)cc4)nc3c2)o1
50 to 200	CN(C)C(=O)c1ccc(NC(=O)Nc2ccc(-c3nc(N4CCOCC4)c4ccc(-c5cccnc5F)cc4n3)cc2)cc1F
< 50	CN(C)C(=O)c1ccc(NC(=O)Nc2ccc(-c3nc(N4CCOCC4)c4cc(F)c(-c5cccnc5)cc4n3)cc2)cc1
< 50	Cc1ccc(-c2ccc3c(N4CCOCC4)nc(-c4ccc(NC(=O)Nc5ccc(C(=O)N6CCC(O)C6)cc5)cc4)nc3c2)o1 (configuration not stated)
< 50	CN(C)[C@H]1CCN(C(=O)c2ccc(NC(=O)Nc3ccc(-c4nc(N5CCOCC5)c5ccc(-c6cncnc6)cc5n4)cc3)cc2)C1
< 50	CN(C)C(=O)c1ccc(NC(=O)Nc2ccc(-c3nc(N4CCOCC4)c4cc(F)c(-c5cnn(C)c5)cc4n3)cc2)cc1

IC50 [nM]	SMILES
< 50	Cc1ncccc1-c1ccc2c(N3CCOCC3)nc(-c3ccc(NC(=O)Nc4ccc(C(=O)N(C)C)cc4)cc3)nc2c1
50 to 200	CN1CCN(C(=O)c2ccc(NC(=O)Nc3ccc(-c4nc(N5CCOCC5)c5ccc(-c6ccsc6)cc5n4)cc3)cc2)CC1
< 50	CN(C)C(=O)c1ccc(NC(=O)Nc2ccc(-c3nc(N4CCOCC4)c4ccc(-c5cccnc5F)cc4n3)c(F)c2)cc1
< 50	CN(C)C(=O)c1ccc(NC(=O)Nc2ccc(-c3nc(N4CCOCC4)c4ncc(-c5cncnc5)cc4n3)cc2)c(F)c1
50 to 200	CN(C)C(=O)c1ccc(NC(=O)Nc2ccc(-c3nc(N4CCOCC4)c4ccc(-c5ccc(N)nc5)cc4n3)cc2)c(F)c1
< 50	CC(=O)Nc1cccc(-c2ccc3c(N4CCOCC4)nc(-c4ccc(NC(=O)Nc5ccc(C(=O)N(C)C)cc5)cc4)nc3c2)c1
< 50	CN(C)C(=O)c1ccc(NC(=O)Nc2ccc(-c3nc(N4CCOCC4)c4ncc(-c5cccnc5)cc4n3)c(F)c2)cc1
50 to 200	CN(C)C(=O)c1ccc(NC(=O)Nc2ccc(-c3nc(N4CCOCC4)c4ccc(-c5ccc(C(C)(C)O)o5)cc4n3)c(F)c2)cc1
< 50	Cc1nn(C)c(C)c1-c1ccc2c(N3CCOCC3)nc(-c3ccc(NC(=O)Nc4ccc(C(=O)N(C)C)cc4)cc3F)nc2c1
50 to 200	CN(C)C(=O)c1ccc(NC(=O)Nc2ccc(-c3nc(N4CCOCC4)c4ccc(-c5cncnc5)cc4n3)c(F)c2F)cc1
< 50	COc1ccc(-c2ccc3c(N4CCOCC4)nc(-c4ccc(NC(=O)Nc5ccc(C(=O)N(C)C)cc5F)cc4)nc3c2)cn1
< 50	CN(C)CCN(C)C(=O)c1ccc(NC(=O)Nc2ccc(-c3nc(N4CCOCC4)c4ccc(-c5ccncc5)cc4n3)cc2)cc1
50 to 200	CN(C)CCNC(=O)c1ccc(NC(=O)Nc2ccc(-c3nc(N4CCOCC4)c4ccc(-c5cncnc5)cc4n3)cc2)cc1
< 50	CN(C)C(=O)c1ccc(NC(=O)Nc2ccc(-c3nc(N4CCOCC4)c4ncc(-c5cnn(C)c5)cc4n3)cc2F)cc1
50 to 200	COc1ccc(-c2ccc3c(N4CCOCC4)nc(-c4ccc(NC(=O)Nc5ccc(C(=O)N(C)C)c(F)c5)cc4)nc3c2)cn1
< 50	COc1ncc(-c2cnc3c(N4CCOCC4)nc(-c4ccc(NC(=O)Nc5ccc(C(=O)N(C)C)cc5)cc4F)nc3c2)cn1
< 50	CN(C)C(=O)c1ccc(NC(=O)Nc2ccc(-c3nc(N4CCOCC4)c4ccc(-c5cccnc5)cc4n3)cc2F)cc1
< 50	Cc1ccc(-c2ccc3c(N4CCOCC4)nc(-c4ccc(NC(=O)Nc5ccc(C(=O)N(C)C)cc5F)cc4)nc3c2)cn1
< 50	CN1CCN(C(=O)c2ccc(NC(=O)Nc3ccc(-c4nc(N5CCOCC5)c5ncc(-c6cnn(C)c6)cc5n4)cc3)cc2)CC1
< 50	CN(C)C(=O)c1ccc(NC(=O)Nc2ccc(-c3nc(N4CCOCC4)c4ccc(-c5cnn(C)c5)cc4n3)cc2F)cc1
50 to 200	Cc1noc(C)c1-c1ccc2c(N3CCOCC3)nc(-c3ccc(NC(=O)Nc4ccc(C(=O)N(C)C)c(F)c4)cc3)nc2c1
50 to 200	COc1ncccc1-c1ccc2c(N3CCOCC3)nc(-c3ccc(NC(=O)Nc4ccc(C(=O)N(C)C)cc4)cc3F)nc2c1
50 to 200	Cc1noc(C)c1-c1cc2nc(-c3ccc(NC(=O)Nc4ccc(C(=O)N(C)C)cc4)cc3)nc(N3CCOCC3)c2cc1F
< 50	N[C@H]1CCN(C(=O)c2ccc(NC(=O)Nc3ccc(-c4nc(N5CCOCC5)c5ccc(-c6ccco6)cc5n4)cc3)cc2)C1
